Consider twelve compounds from patent US6448024B1, “Method, reagent, cartridge, and device for determining fibrinogen” (Roche Diagnostics Corporation, priority 2000, dated 2002).

In assay [1] the test system is thrombin. As to the kind of experiment: One or both of the two assays (wet and cartridge), summary of effective thrombin inhibitors. It counts as biochemical. The note with it: wet and/or cartridge assay; result in words.
The target of assay [2] is T1, thrombin (Bos taurus, UniProt P00735). As to the kind of experiment: Cartridge assay (CoaguChek Plus), dried thrombin reagent in cartridge, inhibitor added to sample. It counts as biochemical, bovine. Further details: adding thrombin (Calbiochem 605157 bovine) to the HEPES Base solution; purchased Calbiochem 605157. To be noted: for Concentration in reagent found to be effective: clotting time above 10 s and below 300 s for fibrinogen 50 to 400 mg/dL, under 10 s without inhibitor. As to the method: An assay cartridge as described above was constructed in which the reagent chamber was coated with a dried reagent containing thrombin in a HEPES buffer matrix. Liquid samples containing latex beads as blood cell surrogates and various levels of fibrinogen were introduced into the cartridge contained within a CoaguChek™ Plus device. Just prior to introducing a sample into the device, the particular thrombin modulator being tested was added to the sample. A variety of thrombin modulators were tested in this manner.
A HEPES Base solution, pH=7.4, was formed from the following ingredients:
A thrombin solution was formed by adding thrombin (Calbiochem 605157 bovine) to the HEPES Base solution, the resulting concentration being 67 units/mL thrombin.
A 10% solution by weight of polystyrene spheres with a mean diameter of 3.27 μm (Bang Laboratories P0032700) was utilized as a blood cell surrogate for plasma or synthetic blood solutions “plastic sphere solution”).
Test cartridges were prepared by applying 3 microliters of the thrombin solution thereto and drying the solution. For each sample, a fresh “thrombin” cartridge was utilized.
Cartridges containing the dried thrombin reagent were utilized for the following experiments. Standard solutions were prepared in accordance with Example 3, except the thrombin inhibitor concentration was fixed, and the fibrinogen concentrations varied.

For assay [3], the target named is T1, thrombin.
Description: Additional cartridges were prepared in which specific inhibitors were combined with the thrombin solution, the thrombin inhibitor/thrombin solution deposited in the cartridge, and dried. […] The TDS reagent (3 microliters) was applied to cartridges and dried. Fibrinogen test samples for these cartridges comprised 40 μL of the fibrinogen working solution combined with 7 μL of the plastic sphere solution.
Assay [4] concerns thrombin. As to the kind of experiment: Wet screening assay for thrombin inhibitors with BBL Fibrometer (clotting time of fibrinogen solutions). It counts as biochemical, human plasma or bovine. The note with it: for Clotting Time (average), n = 2: 15 mg/mL benzamidine (final concentration); for Found useful/effective as thrombin inhibitor in fibrometer wet assay: result in words; for Clot Time: 200 μL 0.5 mg/mL D.S. working solution, 50 μL 100 U/mL thrombin. As to the method:
Materials and Methods: A phosphate buffered saline (PBS)-albumin solution was formed as follows:
2) 100 U/mL thrombin working solution; thrombin was obtained from Calbiochem (605206—human plasma, or 605157—bovine); and
3) fibrinogen working solutions having fibrinogen concentrations ranging from between 6 and 24 mg/mL fibrinogen; fibrinogen was obtained from Calbiochem (341578).
Screening Assay Procedure Using Fibrometer: A BBL Fibrometer was utilized to determine clotting times of test solutions. Test solutions were formed by adding the following components in the following order:
1. 200 μL D.S. working solution,
2. 50 μL thrombin working solution,
3. 50 μL fibrinogen working solution.
Immediately upon addition of the third component (i.e., the fibrinogen working solution), the fibrometer was activated, resulting in the probe being released into the vessel containing the reaction solution. The probe was agitated until sufficient resistance to motion was reached corresponding to a predetermined degree of clotting. A display indicated time from activation of the probe until the predetermined degree of clotting was reached.
Using the method of Example 1, 15 mg/mL benzamidine (Sigma B6506) in the PBS-albumin solution (final concentration) was contacted with samples containing varying amounts of fibrinogen.

Values joined by “and” are separate entries in the source; they are usually repeats but may differ in a detail not shown here. Equal entries are not always repeated. Where two headings read alike, the source gives them in different places.

As for Polyvinylsulfate, in the assay with thrombin [1], the “Thrombin inhibitor found to be effective” value is “effective”.

In the case of Gly-Gly-Arg, the “Thrombin inhibitor found to be effective” value in the assay on thrombin [1] was “effective”. Besides, the “Concentration in reagent found to be effective” value at thrombin [2] was 0.85 mg/mL and 1.3 mg/mL.

For “dextran sulfate [Dextran Sulfate-5,000 Da]”, the “Concentration in reagent found to be effective” value at thrombin [2] turned out to be 5 mg/mL.

Regarding `O=C(NCCCNC(=O)[C@H](OS(=O)(=O)O)[C@@H](OS(=O)(=O)O)[C@H](O[C@@H]1O[C@H](COS(=O)(=O)O)[C@H](OS(=O)(=O)O)[C@H](OS(=O)(=O)O)[C@H]1OS(=O)(=O)O)[C@@H](COS(=O)(=O)O)OS(=O)(=O)O)[C@H](OS(=O)(=O)O)[C@@H](OS(=O)(=O)O)[C@H](O[C@@H]1O[C@H](COS(=O)(=O)O)[C@H](OS(=O)(=O)O)[C@H](OS(=O)(=O)O)[C@H]1OS(=O)(=O)O)[C@@H](COS(=O)(=O)O)OS(=O)(=O)O` [Aprosulate, aprosulate], the “Thrombin inhibitor found to be effective” value with thrombin [1] was “effective”. Further, the “Average Clotting Time After Application To Inlet Port Of Cartridge (n = 2)” value turned out to be 275 s on thrombin [3] (TA reagent dried in cartridge (67 units/mL thrombin, 20 10 g/dL aprosulate as printed), fibrinogen 25.5 mg/mL (so in the source)); 134 s at thrombin [3] (TA reagent dried in cartridge, fibrinogen 102 mg/mL (so in the source)); 41 s on thrombin [3] (TA reagent dried in cartridge, fibrinogen 204 mg/mL (so in the source)); 24 s at thrombin [3] (TA reagent dried in cartridge, fibrinogen 408 mg/mL (so in the source)). Further, the “Clotting Time After Application To Inlet Port Of Cartridge Containing Thrombin Reagent” value at thrombin [2] (43 mg/mL aprosulate, fibrinogen 76 mg/mL (so in the source)) turned out to be 149.1 s; on thrombin [2] (43 mg/mL aprosulate, fibrinogen 153 mg/mL (so in the source)), 85.5 s; on thrombin [2] (43 mg/mL aprosulate, fibrinogen 306 mg/mL (so in the source)), 21.4 s.

As to `N=C(N)c1ccccc1` [benzamidine], the figures for the “Clotting Time (average), n = 2” value in the assay with thrombin [4] (sample fibrinogen 100 mg/dL), in the assay on thrombin [4] (sample fibrinogen 200 mg/dL) and in the assay with thrombin [4] (sample fibrinogen 400 mg/dL) were 242 s, 139 s and 93 s, respectively. Besides, in the assay on thrombin [1], the “Thrombin inhibitor found to be effective” value is listed as “effective”.

Consider dextran sulfate, for which, in the assay on thrombin [4] (listed as dextran sulfate (50,000 Da—Dextralip 50)), the “Found useful/effective as thrombin inhibitor in fibrometer wet assay” value is given as “effective”.

As for Gly-Pro-Ala, the “Thrombin inhibitor found to be effective” value in the assay with thrombin [1] is “effective”.

Turning to “dextran sulfate [dextran sulfate (5,000-50,000 MW)]”, the “Thrombin inhibitor found to be effective” value in the assay on thrombin [1] is “effective”.

For the compound `Cn1c(=O)c2c(ncn2C)n(C)c1=O` [Caffeine, caffeine], the “Thrombin inhibitor found to be effective” value with thrombin [1] was “effective”. Moreover, the “Clotting Time After Application To Inlet Port Of Cartridge Containing Thrombin Reagent” value was determined as 88.8 s at thrombin [2] ([…] caffeine, fibrinogen 100 mg/mL (so in the source)); 30.0 s on thrombin [2] ([…] caffeine, fibrinogen 200 mg/mL (so in the source)); 24.8 s at thrombin [2] ([…] caffeine, fibrinogen 400 mg/mL (so in the source)).

Turning to Polyanetholesulfate, in the assay with thrombin [1], the “Thrombin inhibitor found to be effective” value is recorded as “effective”.

Consider “dextran sulfate [dextran sulfate (10,000 Da)]”, for which the “Clot Time” value with thrombin [4] (final assay fibrinogen 100 mg/dL, about 0.6 s without dextran sulfate) amounted to 22.8 s; with thrombin [4] (final assay fibrinogen 200 mg/dL), 11.8 s; in the assay with thrombin [4] (final assay fibrinogen 250 mg/dL) it was 9.8 s; in the assay with thrombin [4] (final assay fibrinogen 400 mg/dL) it was 1.2 s. For the same compound, in the assay on thrombin [4], the “Found useful/effective as thrombin inhibitor in fibrometer wet assay” value was “useful thrombin inhibitor reagent”. Also, the “Clotting Time After Application To Inlet Port Of Cartridge” value amounted to 40.0 s on thrombin [3] (TDS reagent dried in cartridge (67 units/mL thrombin, 57 mg/mL dextran sulfate 10,000 Da), fibrinogen 198 mg/mL (so in the source)); 26.7 s on thrombin [3] (TDS reagent dried in cartridge (67 units/mL thrombin, 57 mg/mL dextran sulfate 10,000 Da), fibrinogen 396 mg/mL (so in the source)); 69.6 s on thrombin [3] (TDS reagent dried in cartridge (67 units/mL thrombin, 57 mg/mL dextran sulfate 10,000 Da, 3 microliters), fibrinogen 99 mg/mL (so in the source)). The “Clotting Time After Application To Inlet Port Of Cartridge Containing Thrombin Reagent” value was determined as 157.5 s on thrombin [2] (21 mg/mL dextran sulfate (10,000 Da), fibrinogen 100 mg/mL (so in the source) in combined assay solution); 81.9 s at thrombin [2] (21 mg/mL dextran sulfate (10,000 Da), fibrinogen 102 mg/mL (so in the source)); 28.6 s on thrombin [2] (21 mg/mL dextran sulfate (10,000 Da), fibrinogen 204 mg/mL (so in the source)).

Consider Gly-Pro-Arg, for which the “Clotting Time After Application To Inlet Port Of Cartridge Containing Thrombin Reagent” value on thrombin [2] ([…] Gly-Pro-Arg peptide, fibrinogen 100 mg/mL (so in the source)) was determined as 239.6 s; on thrombin [2] ([…] Gly-Pro-Arg peptide, fibrinogen 102 mg/mL (so in the source)), 44.1 s; at thrombin [2] ([…] Gly-Pro-Arg peptide, fibrinogen 204 mg/mL (so in the source)) it was 9.9 s.
